Literature values, collected in patent US6797472B1, “Variation in drug response related to polymorphisms in β2-adrenergic receptor” (Genaissance Pharmaceuticals, Inc., priority 1999, dated 2004).

Columns and labels:
Ile164 receptor [1] = molecular target: T1, Ile164 receptor (Homo sapiens, UniProt P07550, T164I); settings: previous studies
Ile164 receptor [2] = molecular target: T1, Ile164 receptor; settings: competition binding with [125I]cyp in the presence of GTP; reference 4

| Structure (SMILES) | stimulation of adenylyl cyclase by Ile164 receptor compared to Thr164 receptor (Ile164 receptor [1]) | binding affinity at Ile164 receptor (Ile164 receptor [2]) |
| --- | --- | --- |
| NCCc1ccc(O)c(O)c1 [dopamine] | does not show decreased stimulation | normal binding affinities |
| CNC[C@H](O)c1ccc(O)c(O)c1 [epinephrine] | decreased stimulation | small decrease in binding affinity |
| NC[C@H](O)c1ccc(O)c(O)c1 [norepinephrine] | – | small decrease in binding affinity |
